The text below walks through data of patent US6863865B2, “Sterilization of pharmaceuticals” (Breath Limited, priority 2000, dated 2005).

Series [1] in a line: Treatment with high intensity light (Pure-bright process). The class given is physicochemical. To be noted: light at 900 times the intensity of sunlight at sea level; formulations produced as in Example 1. From the text:
An alternative method of sterilization of a budesonide suspension is treatment with high intensity light. The so-called “Pure-bright” process allows treatment with light at 900 times the intensity of sunlight at sea level.

For series [2] the following is noted: cited from earlier work.
Series [3] in a line: HPLC evaluation of impurities after high temperature short time (HTST) sterilization. The format is physicochemical. To be noted: Fo exposures up to 24. From the text: The formulation to be sterilized was passed through narrow lines of pharmaceutical quality stainless steel in which the sample was rapidly raised to an elevated temperature, maintained at this holding temperature for a period of time, then rapidly returned to ambient temperature. Parameters described in Table 1 are the BMRT (bulk mean retention time), that is the time between the sample being raised above ambient temperature and being returned to ambient temperature, and the FFERT, the time for which the sample is maintained at the elevated temperature. […] The theoretical kill rate, Fo, may be calculated from the FFERT and the elevated temperature. The value of Fo is optimally greater than 10, but values greater than 8 are acceptable for the production of sterile formulations.
This example was carried out to evaluate the effect of HTST on the chemical purity of pharmaceutical preparations by assessing the levels of degradation obtained in samples exposed to varying Fo (effective killing times) times. For the purposes of these experiments, budesonide suspensions were used in the evaluation.
The samples were then evaluated using high performance liquid chromatography to assess the level of impurities present.

In the case of `CCCC1O[C@@H]2C[C@H]3[C@@H]4CCC5=CC(=O)C=C[C@]5(C)[C@H]4[C@@H](O)C[C@]3(C)[C@]2(C(=O)CO)O1` (stereo partly drawn) [budesonide], the “stability of budesonide to high intensity light” value in series [1] is “completely destroyed”. Further, the stability to gamma-irradiation entry in series [2] was “destroyed”. In addition, the “effect on chemical stability” value in series [3] is recorded as “no adverse effect”.
